According to patent US20260256792A1, “TREATMENT OF CHRONIC SPONTANEOUS URTICARIA BY ADMINISTERING (R)-2-[3-[4-AMINO-3-(2-FLUORO-4-PHENOXY-PHENYL)PYRAZOLO[3,4-D]PYRIMIDIN-1-YL]PIPERIDINE-1-CARBONYL]-4-METHYL-4-[4-(OXETAN-3-YL)PIPERAZIN-1-YL]PENT-2-ENENITRILE” (priority 2023, published 2026):

Tested on: moderate-to-severe chronic spontaneous urticaria (CSU)
Test: Phase 2 CSU study: itch severity score over 7 days (ISS7)
Format: in vivo, human
Conditions: for Change from Baseline in ISS7 at Week 12, Mean / Change from Baseline in ISS7 at Week 12, LS Mean / Change from Baseline in ISS7 at Week 12, LS Mean Diff vs. placebo: Omalizumab-naïve population; for ISS7 change from baseline at Week 12, LS Mean / ISS7 change from baseline at Week 12, LS Mean Diff vs. placebo: ANCOVA
Description: The study comprises a 12 week, randomized, double-blind, placebo-controlled, multi-center, dose-ranging efficacy and safety phase, followed by a 40 week open label extension (OLE) phase (see FIG. 1). The study consists of three phases and an optional OLE phase. […] Clinically, CSU is characterized by the spontaneous and recurrent appearance of pruritic hives. The proposed primary endpoints were the UAS7 at Week 12 in EU and EU reference countries and the ISS7 in the US. Regardless of where a participant was from, all assessments were the same. The UAS7 score is a composite score containing both the HSS7 and the ISS7. This allowed a global assessment of the two key components of urticaria: hives and itch. […] The UAS is a validated PRO measure. […] The daily UAS scores range from 0 to 6 point/day. […] Patients were to complete the UAS using the e-diary. […] The following secondary endpoints were to be analyzed using the same approach as for the primary endpoint: • Change from baseline in UAS7 at Week 4 • Change from baseline in UAS7 at Week 12 (for US and US reference countries) • Change from baseline in ISS7 at Week 12 (except US and US reference countries) • Change from baseline in HSS7 at Week 12

[1] = 400 mg TID, Baseline ISS7 score <13
[2] = 400 mg TID, Baseline ISS7 score ≥13
[3] = 400 mg TID, Baseline Total IgE (IU/mL) <100
[4] = 400 mg TID, Baseline Total IgE (IU/mL) <300
[5] = 400 mg TID, Baseline Total IgE (IU/mL) ≥100
[6] = 400 mg TID, Baseline Total IgE (IU/mL) ≥300
[7] = 400 mg TID, Baseline UAS7 score <28
[8] = 400 mg TID, Baseline UAS7 score ≥28
[9] = 400 mg TID, Duration of disease (years) 2-10
[10] = 400 mg TID, Duration of disease (years) <2
[11] = 400 mg TID, Duration of disease (years) >10
[12] = 400 mg TID, Ethnicity Non-Hispanic
[13] = 400 mg TID, History of angioedema No
[14] = 400 mg TID, History of angioedema Yes
[15] = 400 mg TID, Race All the Others
[16] = 400 mg TID, Region Eastern Europe
[17] = 400 mg TID, Region Latin America
[18] = 400 mg TID, Region Western Countries
[19] = 400 mg TID, omalizumab-naïve population
[20] = 400 mg TID, omalizumab-naïve population with outlier removed
[21] = End of Study, 400 mg BID, Omalizumab-Naïve

SMILES: CC(C)(C=C(C#N)C(=O)N1CCC[C@@H](n2nc(-c3ccc(Oc4ccccc4)cc3F)c3c(N)ncnc32)C1)N1CCN(C2COC2)CC1 [rilzabrutinib, (R)-2-[3-[4-amino-3-(2-fluoro-4-phenoxy-phenyl)pyrazolo[3,4-d]pyrimidin-1-yl]piperidine-1-carbonyl]-4-methyl-4-[4-(oxetan-3-yl)piperazin-1-yl]pent-2-enenitrile]
- Change from Baseline in ISS7 at Week 12, Mean (400 mg TID, Baseline H1-antihistamines dose 2 to 4-fold standard dose): −12.76
- Change from Baseline in ISS7 at Week 12, LS Mean [1]: −3.73
- Change from Baseline in ISS7 at Week 12, LS Mean Diff vs. placebo [1]: −1.01
- Change from Baseline in ISS7 at Week 12, Mean [1]: −3.50
- Change from Baseline in ISS7 at Week 12, LS Mean [2]: −10.18
- Change from Baseline in ISS7 at Week 12, LS Mean Diff vs. placebo [2]: −4.45
- Change from Baseline in ISS7 at Week 12, Mean [2]: −10.79
- Change from Baseline in ISS7 at Week 12, LS Mean [3]: −9.19
- Change from Baseline in ISS7 at Week 12, LS Mean Diff vs. placebo [3]: −4.95
- Change from Baseline in ISS7 at Week 12, Mean [3]: −11.17
- Change from Baseline in ISS7 at Week 12, LS Mean [4]: −9.55
- Change from Baseline in ISS7 at Week 12, LS Mean Diff vs. placebo [4]: 5.04
- Change from Baseline in ISS7 at Week 12, LS Mean [5]: −9.13
- Change from Baseline in ISS7 at Week 12, LS Mean Diff vs. placebo [5]: −3.10
- Change from Baseline in ISS7 at Week 12, Mean [5]: −9.49
- Change from Baseline in ISS7 at Week 12, LS Mean [6]: −8.12
- Change from Baseline in ISS7 at Week 12, LS Mean Diff vs. placebo [6]: −1.58
- Change from Baseline in ISS7 at Week 12, Mean [6]: 8.74
- Change from Baseline in ISS7 at Week 12, LS Mean [7]: −6.43
- Change from Baseline in ISS7 at Week 12, LS Mean Diff vs. placebo [7]: −3.26
- Change from Baseline in ISS7 at Week 12, Mean [7]: −7.61
- Change from Baseline in ISS7 at Week 12, LS Mean [8]: −10.62
- Change from Baseline in ISS7 at Week 12, LS Mean Diff vs. placebo [8]: −4.02
- Change from Baseline in ISS7 at Week 12, Mean [8]: −11.99
- Change from Baseline in ISS7 at Week 12, LS Mean [9]: −8.84
- Change from Baseline in ISS7 at Week 12, LS Mean Diff vs. placebo [9]: −1.82
- Change from Baseline in ISS7 at Week 12, Mean [9]: −9.37
- Change from Baseline in ISS7 at Week 12, LS Mean [10]: −9.77
- Change from Baseline in ISS7 at Week 12, LS Mean Diff vs. placebo [10]: −6.12
- Change from Baseline in ISS7 at Week 12, Mean [10]: −10.93
- Change from Baseline in ISS7 at Week 12, LS Mean [11]: −9.33
- Change from Baseline in ISS7 at Week 12, LS Mean Diff vs. placebo [11]: −5.64
- Change from Baseline in ISS7 at Week 12, Mean [11]: −11.00
- Change from Baseline in ISS7 at Week 12, LS Mean (400 mg TID, Ethnicity Hispanic): 7.36
- Change from Baseline in ISS7 at Week 12, LS Mean Diff vs. placebo (400 mg TID, Ethnicity Hispanic): −0.35
- Change from Baseline in ISS7 at Week 12, Mean (400 mg TID, Ethnicity Hispanic): −8.13
- Change from Baseline in ISS7 at Week 12, LS Mean [12]: −10.16
- Change from Baseline in ISS7 at Week 12, LS Mean Diff vs. placebo [12]: −5.69
- Change from Baseline in ISS7 at Week 12, Mean [12]: −11.83
- Change from Baseline in ISS7 at Week 12, Mean (400 mg TID, Gender Male): −7.08
- Change from Baseline in ISS7 at Week 12, LS Mean [13]: −9.56
- Change from Baseline in ISS7 at Week 12, LS Mean Diff vs. placebo [13]: −4.22
- Change from Baseline in ISS7 at Week 12, Mean [13]: −10.86
- Change from Baseline in ISS7 at Week 12, LS Mean [14]: −8.24
- Change from Baseline in ISS7 at Week 12, LS Mean Diff vs. placebo [14]: −2.99
- Change from Baseline in ISS7 at Week 12, Mean [14]: −9.01
- ISS7 at Week 12, Mean (400 mg TID, ITT population): 5.59
- ISS7 at Week 12, Median (400 mg TID, ITT population): 6.00
- ISS7 change from baseline at Week 12, Mean (400 mg TID, ITT population): −10.68
- ISS7 change from baseline at Week 12, Median (400 mg TID, ITT population): −10.67
- LS mean change from baseline in ISS7 at Week 12 (400 mg TID, ITT population): −9.58 points
- ISS7 change from baseline at Week 12, LS Mean (400 mg TID, ITT population): −9.58 points
- ISS7 change from baseline at Week 12, LS Mean Diff vs. placebo (400 mg TID, ITT population): −3.26
- decrease from baseline in ISS7 (400 mg TID, ITT population, belongs to LS mean change −6.65): 40.41%
- LS mean change in ISS7 from baseline (see Table 29) (400 mg TID, ITT population, following one week of treatment): −6.65 points
- Change from Baseline in ISS7 at Week 12, LS Mean [15]: −8.74
- Change from Baseline in ISS7 at Week 12, LS Mean Diff vs. placebo [15]: −5.27
- Change from Baseline in ISS7 at Week 12, Mean [15]: −8.74
- Change from Baseline in ISS7 at Week 12, LS Mean (400 mg TID, Race White): −9.18
- Change from Baseline in ISS7 at Week 12, LS Mean Diff vs. placebo (400 mg TID, Race White): −3.17
- Change from Baseline in ISS7 at Week 12, Mean (400 mg TID, Race White): −10.88
- Change from Baseline in ISS7 at Week 12, LS Mean (400 mg TID, Region Asia): −8.33
- Change from Baseline in ISS7 at Week 12, LS Mean Diff vs. placebo (400 mg TID, Region Asia): −4.87
- Change from Baseline in ISS7 at Week 12, Mean (400 mg TID, Region Asia): −8.21
- Change from Baseline in ISS7 at Week 12, LS Mean [16]: −14.02
- Change from Baseline in ISS7 at Week 12, LS Mean Diff vs. placebo [16]: −1.35
- Change from Baseline in ISS7 at Week 12, Mean [16]: −13.17
- Change from Baseline in ISS7 at Week 12, LS Mean [17]: −6.07
- Change from Baseline in ISS7 at Week 12, LS Mean Diff vs. placebo [17]: 0.52
- Change from Baseline in ISS7 at Week 12, Mean [17]: −7.34
- Change from Baseline in ISS7 at Week 12, LS Mean [18]: 9.58
- Change from Baseline in ISS7 at Week 12, LS Mean Diff vs. placebo [18]: −5.03
- Change from Baseline in ISS7 at Week 12, Mean [18]: −11.79
- ISS7 at Week 12, Mean [19]: 5.77
- ISS7 at Week 12, Median [19]: 7.00
- ISS7 change from baseline at Week 12, Mean [19]: −10.27
- ISS7 change from baseline at Week 12, Median [19]: −10.33
- LS mean change from baseline in ISS7 at Week 12 [19]: −9.21
- LS mean reduction in ISS7 (see Table 30) [19]: −6.13
- ISS7 at Week 12, Mean [20]: 5.77
- ISS7 at Week 12, Median [20]: 7.00
- ISS7 change from baseline at Week 12, Mean [20]: −10.27
- ISS7 change from baseline at Week 12, Median [20]: −10.33
- ISS7 change from baseline at Week 12, LS Mean [20]: −9.57 points
- ISS7 change from baseline at Week 12, LS Mean Diff vs. placebo [20]: −3.86
- LS mean change from baseline in ISS7 at Week 12 (400 mg TID, omalizumab-naïve population, outlier removed): −9.57
- ISS7 change from baseline at Week 12, LS Mean [19]: −9.21 points
- ISS7 change from baseline at Week 12, LS Mean Diff vs. placebo [19]: −3.44
- ISS7 Mean (SD) [21]: 7.80 (8.76)
- ISS7 Median [21]: 7.00
- ISS7 Mean (SD) (End of Study, 400 mg QPM, Omalizumab-Naïve): 5.74 (8.03)
